In ChEMBL document CHEMBL5108037, “Cyclic Peptide Screening Methods for Preclinical Drug Discovery” (J Med Chem, 2022) one finds Kd and IC50 data, which are given here for seven compounds.

Test [1] can be described thus: Binding affinity to Carbonic anhydrase (unknown origin) assessed as dissociation constant by isothermal titration calorimetry. Set-up: species or system Homo sapiens.
For test [2], the target named is T1, Kelch-like ECH-associated protein 1 (Homo sapiens, UniProt Q14145). Nature of the test: Binding affinity to Keap1 (unknown origin) assessed as dissociation constant by calorimetric analysis.
T1 sequence (Q14145 whole entry): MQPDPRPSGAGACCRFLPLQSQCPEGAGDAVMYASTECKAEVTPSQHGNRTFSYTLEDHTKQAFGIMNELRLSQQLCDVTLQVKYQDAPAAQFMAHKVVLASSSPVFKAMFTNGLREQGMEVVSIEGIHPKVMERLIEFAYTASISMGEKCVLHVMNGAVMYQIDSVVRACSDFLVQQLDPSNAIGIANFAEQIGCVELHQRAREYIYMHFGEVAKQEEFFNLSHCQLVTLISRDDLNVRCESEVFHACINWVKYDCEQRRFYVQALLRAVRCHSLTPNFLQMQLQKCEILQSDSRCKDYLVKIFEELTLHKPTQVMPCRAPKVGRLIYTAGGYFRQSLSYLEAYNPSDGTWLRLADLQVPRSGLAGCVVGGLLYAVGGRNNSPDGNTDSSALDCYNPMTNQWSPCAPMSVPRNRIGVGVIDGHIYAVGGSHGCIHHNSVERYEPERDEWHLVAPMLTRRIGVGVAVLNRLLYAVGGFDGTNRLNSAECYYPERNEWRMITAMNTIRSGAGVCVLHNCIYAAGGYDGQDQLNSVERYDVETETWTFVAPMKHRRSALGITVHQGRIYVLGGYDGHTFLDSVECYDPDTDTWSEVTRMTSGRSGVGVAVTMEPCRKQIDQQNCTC
Test [3] addresses T1, Kelch-like ECH-associated protein 1. Nature of the test: Inhibition of Keap1 (unknown origin) by ELISA analysis.
Test [4] can be described thus: Inhibition of HIF-1alpha / HIF-1beta (unknown origin) protein-protein interaction by ELISA assay. Set-up: species or system Homo sapiens.
Test [5] is described as follows: Inhibition of recombinant His-tagged HIF-1 expressed in human U2OS cells measured after 90 mins by ELISA assay. The test is classed as cell-based.
A further test concerns the target T2, TCF4-CTNNB1 complex (Homo sapiens, UniProt P35222).
T2 sequence (P35222 whole entry): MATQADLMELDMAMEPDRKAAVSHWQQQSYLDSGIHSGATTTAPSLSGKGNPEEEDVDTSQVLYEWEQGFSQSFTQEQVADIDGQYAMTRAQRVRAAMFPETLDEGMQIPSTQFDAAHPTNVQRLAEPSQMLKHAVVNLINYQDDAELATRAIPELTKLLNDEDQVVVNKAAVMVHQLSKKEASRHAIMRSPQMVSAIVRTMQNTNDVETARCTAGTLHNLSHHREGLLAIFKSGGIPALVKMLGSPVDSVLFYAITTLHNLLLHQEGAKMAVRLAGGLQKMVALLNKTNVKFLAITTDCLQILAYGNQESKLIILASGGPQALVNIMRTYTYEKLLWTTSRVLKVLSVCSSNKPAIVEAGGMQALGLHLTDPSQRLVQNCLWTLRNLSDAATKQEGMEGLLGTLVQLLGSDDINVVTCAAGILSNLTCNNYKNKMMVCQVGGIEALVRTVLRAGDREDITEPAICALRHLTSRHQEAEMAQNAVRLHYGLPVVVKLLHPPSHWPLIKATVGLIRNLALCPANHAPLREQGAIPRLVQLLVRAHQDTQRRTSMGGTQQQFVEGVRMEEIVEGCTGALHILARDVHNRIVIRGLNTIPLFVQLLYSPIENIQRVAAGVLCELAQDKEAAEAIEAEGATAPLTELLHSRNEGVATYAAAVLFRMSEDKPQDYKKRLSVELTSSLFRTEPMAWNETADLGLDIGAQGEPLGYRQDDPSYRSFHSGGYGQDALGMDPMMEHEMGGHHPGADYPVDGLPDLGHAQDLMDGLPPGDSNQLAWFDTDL
T2 sequence (P15884 whole entry): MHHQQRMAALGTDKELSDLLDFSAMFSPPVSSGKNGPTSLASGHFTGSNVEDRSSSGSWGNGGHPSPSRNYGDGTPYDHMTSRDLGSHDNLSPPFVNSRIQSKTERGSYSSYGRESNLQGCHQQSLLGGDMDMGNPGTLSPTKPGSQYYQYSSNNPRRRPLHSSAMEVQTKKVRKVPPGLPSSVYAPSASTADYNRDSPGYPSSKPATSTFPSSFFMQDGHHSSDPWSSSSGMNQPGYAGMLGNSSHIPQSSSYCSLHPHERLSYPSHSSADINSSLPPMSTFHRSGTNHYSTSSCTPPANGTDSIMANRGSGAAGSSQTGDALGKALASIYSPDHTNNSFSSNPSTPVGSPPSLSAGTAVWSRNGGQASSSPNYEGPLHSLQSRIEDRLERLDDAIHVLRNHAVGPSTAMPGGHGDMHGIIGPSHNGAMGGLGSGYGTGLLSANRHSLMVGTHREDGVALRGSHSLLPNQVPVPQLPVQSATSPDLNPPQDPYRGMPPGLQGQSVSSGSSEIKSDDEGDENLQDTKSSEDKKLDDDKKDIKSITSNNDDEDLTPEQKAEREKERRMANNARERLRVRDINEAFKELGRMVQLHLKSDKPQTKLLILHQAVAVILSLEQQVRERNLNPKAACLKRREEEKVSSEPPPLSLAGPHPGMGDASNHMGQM
Nature of the test: Binding affinity to FITC-labeled Tcf4 (unknown origin) /6His-tagged beta-catenin (135 to 668 residues) (unknown origin) protein-protein interaction assessed as inhibition constant by fluorescence polarization assay. The test is classed as protein-complex assay.

Another test concerns the target GTPase KRas (Homo sapiens, UniProt P01116, G12D). Nature of the test: Inhibition of human His-Avi-TEV-tagged KRAS G12D mutant expressed in Escherichia coli BL21(DE3) by TR-FRET assay.
A short description of test [6]: Inhibition of TEV protease using Cy5-ENLYFQGK(QSY21)-NH2 as substrate incubated for 1 hr by fluorescence based analysis. Set-up: species or system Tobacco etch virus.
Test [7] is described as follows: Inhibition of FphF (unknown origin) using Cy5-ENLYFQGK(QSY21)-NH2 as substrate incubated for 1 hr by fluorescence based analysis. Details: species or system Homo sapiens.

pIC50, pKd: −log10 of the molar value. Starred links: 1 amine or outer side, 2 acyl side, 3 side chain; linkers in the order of their positions; H or OH if unused. Positions of bridges follow the written chain, without caps; N, C: chain ends. Non-standard residues stand in square brackets, D forms with d. Residues, ends and D or L forms follow the SMILES beside them. *: point of attachment. X2 = CC1CCN(C[C@H](N[*:1])C(=O)[*:2])CC1; X3 = NC(=O)CNC[C@H](CSCC(=O)[*:1])N[*:2]; X1 = O=C(CN(CC[*:3])[*:1])[*:2]; CH2CH2 = C(C[*:2])[*:1]; Dap = NC[C@H](N)C(=O)O; BrAc = O=C(CBr)*; Mpa = O=C(O)CCS

Chain of GTPase KRas (P01116 whole entry G12D): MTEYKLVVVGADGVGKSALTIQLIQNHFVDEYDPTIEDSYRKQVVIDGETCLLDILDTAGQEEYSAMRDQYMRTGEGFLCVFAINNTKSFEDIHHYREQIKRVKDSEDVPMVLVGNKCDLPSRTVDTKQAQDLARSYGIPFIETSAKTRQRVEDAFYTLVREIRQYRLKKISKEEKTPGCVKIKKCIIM

`NNc1ccc(S(N)(=O)=O)cc1`: the pKd in [1] is 4.30. For the compound `C[C@@H](O)[C@@H]1NC(=O)[C@H](CCC(=O)O)NC(=O)[C@H](CO)NC(=O)[C@H](CC(=O)O)NC(=O)[C@@H](N)Cc2ccc(cc2)OCCSC[C@@H](C(=O)O)NC(=O)[C@H](CCC(=O)O)NC(=O)CNC1=O` (H-YDSETGEC-OH; linker 1-8 via CH2CH2), the pKd in test [2] is 6.96. The pIC50 in test [3] is 8.55. With `CC(C)C[C@@H]1NC(=O)[C@H](CS)NC(=O)[C@H](Cc2ccc(O)cc2)NC(=O)[C@H](C(C)C)NC(=O)[C@H](Cc2ccccc2)NC(=O)[C@H](CC(C)C)NC1=O`, the pIC50 is 5.89 in [4] and 4.72 in test [5].

As for `CC[C@H](C)[C@@H]1NC(=O)[C@H](CNC(=O)CBr)NC(=O)[C@H](CC(=O)O)NC(=O)[C@H](CC(=O)O)NC(=O)CNC(=O)[C@@H]2CCCN2C(=O)[C@H](C)NC(=O)[C@H](CCCNC(=N)N)NC(=O)[C@H]([C@@H](C)O)NC(=O)[C@H](CCC(N)=O)NC(=O)[C@H]([C@@H](C)O)NC(=O)CCSCCN(CC(N)=O)C(=O)[C@H](Cc2ccccc2)NC(=O)[C@H]([C@@H](C)O)NC1=O` ([Mpa]TQTRAPGDD[Dap](BrAc)ITF[X1]-NH2; thioether 1-15), the pIC50 on TCF4-CTNNB1 complex is 5.40. On to `CC1CCN(C[C@@H]2NC(=O)[C@H](CCCNC(=N)N)NC(=O)[C@H](Cc3ccccc3)NC(=O)[C@H](CC(N)=O)NC(=O)[C@H](CCCNC(=N)N)NC(=O)[C@H](Cc3ccccc3)NC(=O)[C@H](CC(N)=O)NC(=O)[C@H](C(C)C)NC(=O)[C@H](Cc3ccccc3)NC(=O)[C@H](Cc3ccc(O)cc3)NC(=O)CSC[C@@H](CNCC(N)=O)NC(=O)[C@H](CCCNC(=N)N)NC(=O)[C@H](Cc3ccccc3)NC2=O)CC1` (YFVNFRNFR[X2]FR; linker N-C via X3), for which, on GTPase KRas, the pIC50 was 6.10.

As for `CSCC[C@@H]1NC(=O)[C@H](Cc2ccc(O)cc2)NC(=O)[C@@H](NC(=O)[C@H](C)N)CSC/C(=N\OCC(=O)NC/C=C/S(C)(=O)=O)CSC[C@@H](C(=O)NCC(=O)O)NC(=O)[C@H](CC(C)C)NC(=O)[C@H](Cc2ccc(O)cc2)NC(=O)[C@H](CC(C)C)NC(=O)[C@@H]2CCCN2C(=O)[C@H](CCC(=O)O)NC(=O)[C@H](CCC(N)=O)NC1=O`, in test [6], the pIC50 is 6.14. In turn, `CSCC[C@@H]1NC(=O)[C@H](Cc2c[nH]c3ccccc23)NC(=O)[C@H](CCCNC(=N)N)NC(=O)[C@H](Cc2c[nH]c3ccccc23)NC(=O)[C@H](CCCNC(=N)N)NC(=O)[C@H](C)NC(=O)[C@@H](NC(=O)[C@@H](N)C(C)C)CSC/C(=N/OCC(=O)CP(=O)(Oc2ccccc2)Oc2ccccc2)CSC[C@@H](C(=O)NCC(=O)O)NC(=O)[C@@H]2CCCN2C1=O` showed a pIC50 in test [7] of 6.19.
